# Test system: p110δ
# Experiment: PI 3-kinase activity of immunoprecipitated FLAG-tagged p110δ (lipid kinase assay, TLC/autoradiography)
# Format: biochemical, human
# Conditions: at 100 nM wortmannin; p110δ immunoprecipitated from transfected COS cells
# Description: The FLAG-tagged p110δ was expressed by transfecting pCDNA3:p110δFLAG into COS cells using DEAE dextran. Three days after transfection, expression of p110δ was determined by immunoprecipitations and western blotting using the M2 monoclonal antibody (Kodak Scientific Imaging Systems) according to the manufacturer's instructions. PI 3-kinase activity was determined as described [Hu et al., Mol. Cell. Biol., 13:7677-7688 (1993)].
# To determine the PI 3-kinase activity of p110δ, 5μl of immunoprecipitated p110δ was mixed with 1 μl of PI/EGTA and incubated at room temperature for 10 minutes [PI/EGTA is 10 mg/ml PI(Sigma) in CHCl3, which has been dried under a vacuum, resuspended in 20 mg/ml DMSO in the presence or absence of various concentrations of the PI3 kinase inhibitor wortmannin and diluted 1:10 in 5 mM EGTA] and added to 1 μl 10× HM buffer (200 mM HEPES pH7.2, 50 mM MnCl2), 0.5 μl γ^32 PATP (10 mCi/ml-300 Ci/mmol), 1 μl 100 μM ATP, and 1.5 μl H2 O and incubated at 30° C. for 15 minutes. The reactions were terminated by addition of 100μl 1M HCl. Lipids were extracted with 200 μl CHCl3 /MeOH (1:1) by vortexing for 1 minute followed by centrifugation at 16,000×g for 2 minutes at room temperature. The lipids were further extracted with 80 μl 1M HCl/MeOH (1:1) by vortexing for 1 minutes, followed by centrifugation at 16,000×g for 2 minutes at room temperature. […]
structure (smiles),measurement,value
COC[C@H]1OC(=O)c2coc3c2[C@@]1(C)C1=C(C3=O)[C@@H]2CCC(=O)[C@@]2(C)C[C@H]1OC(C)=O [wortmannin],inhibition of PI 3-kinase activity (generation of phosphorylated lipids),approximately 50%

# From patent US5985589A, “Lipid kinase” (ICOS Corporation, priority 1999, dated 1999)
